According to patent publication US7078195B2, “Antibiotics AA-896” (Wyeth Holdings Corporation, priority 2001, dated 2006):

Experiments:
Experiment in all cases: Broth dilution MIC
Format in all cases: cell-based
Conditions in all cases: Mueller-Hinton broth, 18 hours at 35° C.
S. aureus GC 4536 = tested on: S. aureus GC 4536
Description: (§1) The in vitro antibacterial activity of AA-896-A1, AA-896-A2, AA-896-A3, AA-896-A4, AA-896-A5, AA-896-B1, AA-896-B2, AA-896-B3, AA-896-B4, AA-896-B5, AA-896-B6, AA-896-B7, AA-896-C1, AA-896-C2, AA-896-C3, AA-896-C4, AA-896-D1, AA896-D2 and AA-896-D3 is determined against a spectrum of Gram-positive and Gram-negative bacteria by a standard broth dilution method. Serial dilution of the compounds are made in Mueller-Hinton broth and inoculated with a bacterial suspension. The lowest concentration of compound that inhibited the growth of a bacterial strain after 18 hours of incubation at 35° C. is reported as the minimal inhibitory concentration (MIC) for that strain.

E. coli GC 4559 = tested on: E. coli GC 4559
Description: as §1

E. cloacae GC 3783 = tested on: E. cloacae GC 3783
Description: as §1

E. faecalis GC 2242 = tested on: E. faecalis GC 2242
Description: as §1

P. aeruginosa GC 2214 = tested on: P. aeruginosa GC 2214
Description: as §1

CNS GC 4538 = tested on: CNS GC 4538
Description: as §1

E. faecalis GC 4555 = tested on: E. faecalis GC 4555
Description: as §1

M. morganii GC 4531 = tested on: M. morganii GC 4531
Description: as §1

E. faecalis GC 842 = tested on: E. faecalis GC 842
Description: as §1

CNS GC 4537 = tested on: CNS GC 4537
Description: as §1

P. aeruginosa GC 4532 = tested on: P. aeruginosa GC 4532
Description: as §1

S. aureus GC 2216 = tested on: S. aureus GC 2216
Description: as §1

S. aureus GC 1131 = tested on: S. aureus GC 1131
Description: as §1

P. rettgeri GC 4530 = tested on: P. rettgeri GC 4530
Description: as §1

S. marcescens GC 4077 = tested on: S. marcescens GC 4077
Description: as §1

E. coli GC 2203 = tested on: E. coli GC 2203
Description: as §1

E. coli GC 3226 = tested on: E. coli GC 3226
Description: as §1

K. pneumoniae GC 4534 = tested on: K. pneumoniae GC 4534
Description: as §1

E. coli GC 4560 = tested on: E. coli GC 4560
Description: as §1

CNS GC 4547 = tested on: CNS GC 4547
Description: as §1

Compound | Antimicrobial Activity (MIC) (S. aureus GC 4536) [µg/mL] | Antimicrobial Activity (MIC) (E. coli GC 4559) [µg/mL] | Antimicrobial Activity (MIC) (E. cloacae GC 3783) [µg/mL] | Antimicrobial Activity (MIC) (E. faecalis GC 2242) [µg/mL] | Antimicrobial Activity (MIC) (P. aeruginosa GC 2214) [µg/mL] | Antimicrobial Activity (MIC) (CNS GC 4538) [µg/mL] | Antimicrobial Activity (MIC) (E. faecalis GC 4555) [µg/mL] | Antimicrobial Activity (MIC) (M. morganii GC 4531) [µg/mL] | Antimicrobial Activity (MIC) (E. faecalis GC 842) [µg/mL] | Antimicrobial Activity (MIC) (CNS GC 4537) [µg/mL] | Antimicrobial Activity (MIC) (P. aeruginosa GC 4532) [µg/mL] | Antimicrobial Activity (MIC) (S. aureus GC 2216) [µg/mL] | Antimicrobial Activity (MIC) (S. aureus GC 1131) [µg/mL] | Antimicrobial Activity (MIC) (P. rettgeri GC 4530) [µg/mL] | Antimicrobial Activity (MIC) (S. marcescens GC 4077) [µg/mL] | Antimicrobial Activity (MIC) (E. coli GC 2203) [µg/mL] | Antimicrobial Activity (MIC) (E. coli GC 3226) [µg/mL] | Antimicrobial Activity (MIC) (K. pneumoniae GC 4534) [µg/mL] | Antimicrobial Activity (MIC) (E. coli GC 4560) | Antimicrobial Activity (MIC) (CNS GC 4547) [µg/mL]
COC1C(OC(C(NCCCNC(=O)C(CC(C)C)NC(=O)C(NC(=O)NC(C(=O)O)C(C)C)C2CCNC(=N)N2)C(=O)O)C2OC(n3ccc(=O)[nH]c3=O)C(O)C2O)OC(CN)C1O [AA-896-D1, 5-O-[5-Amino-5-deoxy-2-O-methyl-β-D-ribofuranosyl]-6-[[3-[2-[2-[[(1-carboxy-2-methyl-propyl)carbamoyl]amino]-2-(hexahydro-2-iminopyrimidin-4-yl)acetamido]-4-methyl-pentanamido]propyl]amino]-1,6-dideoxy-1-(3,4-dihydro-2,4-dioxopyrimidin-1(2H)-yl)-β-D-heptofuranuronic acid] | >32 | >32 | 32 | >32 | 32 | >32 | >32 | >32 | >32 | >32 | 32 | >32 | >32 | >32 | >32 | >32 | 32 | >32 | 1 µg/mL | >32
CC(C)CC(NC(=O)C(NC(=O)NC(C(=O)O)C(C)C)C1CCNC(=N)N1)C(=O)NCCCNC(C(=O)O)C(OC1CC(O)C(CN)O1)C1OC(n2ccc(=O)[nH]c2=O)C(O)C1O [AA-896-D3, 5-O-[5-Amino-2,5-dideoxy-β-D-ribofuranosyl]-6-[[3-[2-[2-[[(1-carboxy-2-methylpropyl)-carbamoyl]amino]-2-(hexahydro-2-iminopyrimidin-4-yl)acetamido]-4-methylpentanamido]-propyl]amino]-1,6-dideoxy-1-(3,4-dihydro-2,4-dioxopyrimidin-1(2H)-yl)-β-D-heptofuran-uronic acid] | >32 | >32 | >32 | >32 | 32 | >32 | >32 | >32 | >32 | >32 | >32 | >32 | >32 | >32 | >32 | 32 | 32 | >32 | 0.25 µg/mL | >32
COC1C(OC(C(NCCCNC(=O)C(NC(=O)C(NC(=O)NC(C(=O)O)C(C)C)C2CCNC(=N)N2)C(OC(=O)CCCCC(C)C)C(C)C)C(=O)O)C2OC(n3ccc(=O)[nH]c3=O)C(O)C2O)OC(CN)C1O [AA-896-B6, 5-O-[5-Amino-5-deoxy-2-O-methyl-β-D-ribofuranosyl]-6-[[3-[2-[2-[[(1-carboxy-2-methyl-propyl)carbamoyl]amino]-2-(hexahydro-2-iminopyrimidin-4-yl)acetamido]-4-methyl-3-[(6-methylheptanoyl)oxy]pentanamido]propyl]amino]-1,6-dideoxy-1-(3,4-dihydro-2,4-dioxopyrimidin-1(2H)-yl)-β-D-heptofuranuronic acid] | >64 | 32 | 8 | >64 | 64 | 64 | >64 | >64 | >64 | >64 | >64 | >64 | >64 | >64 | >64 | 64 | 64 | 32 | <=0.06 μg/ml | >64
CC(C)CCCCC(=O)OC(C(C)C)C(NC(=O)C(NC(=O)NC(C(=O)O)C(C)C)C1CCNC(=N)N1)C(=O)NCCCNC(C(=O)O)C(OC1OC(CN)C(O)C1O)C1OC(n2ccc(=O)[nH]c2=O)C(O)C1O [AA-896-B7, 5-O-[5-Amino-5-deoxy-β-D-ribofuranosyl]-6-[[3-[2-[2-[[(1-carboxy-2-methylpropyl)-carbamoyl]amino]-2-(hexahydro-2-iminopyrimidin-4-yl)acetamido]-4-methyl-3-[(6-methylheptanoyl)oxy]pentanamido]propyl]amino]-1,6-dideoxy-1-(3,4-dihydro-2,4-dioxopyrimidin-1(2H)-yl)-β-D-heptofuranuronic acid] | >64 | 64 | 16 | >64 | >64 | >64 | >64 | >64 | >64 | >64 | >64 | >64 | >64 | >64 | >64 | >64 | >64 | 64 | <=0.06 μg/ml | >64
